Measurements from ChEMBL document CHEMBL1201862, “PubChem BioAssay data set” (2004).
Counter-ions that a name gives are not always drawn. Active and inactive are the calls of the source.

Key:
[1] = biological target: DNA dC->dU-editing enzyme APOBEC-3G (Homo sapiens, UniProt Q9HC16); assay type: functional;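 note: Dose-response counterscreen measuring inhibition of APOBEC3G DNA deaminase activity, run while confirming APOBEC3A inhibitors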
[2] = biological target: T1, Aryl hydrocarbon receptor (Homo sapiens, UniProt P35869); test: Luminescence-based cell-based high throughput dose response assay for activators of the Aryl Hydrocarbon Receptor (AHR). [Related pubchem assays: 2796 (Primary screen (AHR activators in singlicate)), 2845 (Confirmation screen (AHR activators in triplicate)), 434939 (Counterscreen (PXR activators in triplicate)), 2804 (Summary (AHR activators))]; assay type: ADME
T1 sequence (P35869 whole entry): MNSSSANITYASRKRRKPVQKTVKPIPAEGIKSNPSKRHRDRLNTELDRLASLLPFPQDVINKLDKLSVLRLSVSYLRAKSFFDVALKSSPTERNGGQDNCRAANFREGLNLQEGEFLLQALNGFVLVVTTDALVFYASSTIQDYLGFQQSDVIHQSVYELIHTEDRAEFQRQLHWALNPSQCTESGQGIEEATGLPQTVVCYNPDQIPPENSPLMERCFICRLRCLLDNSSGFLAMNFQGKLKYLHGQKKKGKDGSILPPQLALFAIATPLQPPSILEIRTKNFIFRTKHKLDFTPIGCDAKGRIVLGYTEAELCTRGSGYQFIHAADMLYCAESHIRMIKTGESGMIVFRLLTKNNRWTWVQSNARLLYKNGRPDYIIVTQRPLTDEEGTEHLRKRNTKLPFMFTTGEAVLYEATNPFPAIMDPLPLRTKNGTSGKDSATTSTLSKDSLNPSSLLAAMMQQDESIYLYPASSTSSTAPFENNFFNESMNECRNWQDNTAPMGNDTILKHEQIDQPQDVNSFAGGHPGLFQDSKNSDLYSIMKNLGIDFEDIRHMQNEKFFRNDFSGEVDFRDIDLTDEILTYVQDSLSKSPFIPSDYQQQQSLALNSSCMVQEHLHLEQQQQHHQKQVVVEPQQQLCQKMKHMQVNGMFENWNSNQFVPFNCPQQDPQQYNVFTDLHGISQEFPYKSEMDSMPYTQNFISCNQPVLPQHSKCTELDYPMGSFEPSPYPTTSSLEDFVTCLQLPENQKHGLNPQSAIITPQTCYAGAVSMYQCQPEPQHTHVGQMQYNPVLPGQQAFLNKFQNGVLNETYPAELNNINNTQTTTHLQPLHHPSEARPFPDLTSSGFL

[3] = biological target: DNA dC->dU-editing enzyme APOBEC-3A (Homo sapiens, UniProt P31941); test: Dose Response confirmation of small molecule APOBEC3A DNA Deaminase Inhibitors via a fluorescence-based single-stranded DNA deaminase assay. [Related pubchem assays (depositor defined):AID493011, AID493024]; assay type: functional
Chain of DNA dC->dU-editing enzyme APOBEC-3A (P31941 whole entry): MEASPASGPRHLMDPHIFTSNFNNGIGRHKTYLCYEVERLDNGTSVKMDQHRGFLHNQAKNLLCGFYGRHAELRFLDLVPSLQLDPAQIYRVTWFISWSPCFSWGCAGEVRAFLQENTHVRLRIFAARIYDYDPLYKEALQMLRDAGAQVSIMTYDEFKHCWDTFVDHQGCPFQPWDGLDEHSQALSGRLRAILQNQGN

[4] = biological target: G-protein coupled receptor 35 (Homo sapiens, UniProt Q9HC97); test: GPR35 antagonists blocking zaprinast-driven arrestin recruitment, primary screen, imaging, U2OS, beta-arrestin-GFP, zaprinast agonist (AID 2058); assay type: functional;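 note: antagonist potency meaning inhibition of agonist-induced arrestin redistribution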
Chain of G-protein coupled receptor 35 (Q9HC97 whole entry): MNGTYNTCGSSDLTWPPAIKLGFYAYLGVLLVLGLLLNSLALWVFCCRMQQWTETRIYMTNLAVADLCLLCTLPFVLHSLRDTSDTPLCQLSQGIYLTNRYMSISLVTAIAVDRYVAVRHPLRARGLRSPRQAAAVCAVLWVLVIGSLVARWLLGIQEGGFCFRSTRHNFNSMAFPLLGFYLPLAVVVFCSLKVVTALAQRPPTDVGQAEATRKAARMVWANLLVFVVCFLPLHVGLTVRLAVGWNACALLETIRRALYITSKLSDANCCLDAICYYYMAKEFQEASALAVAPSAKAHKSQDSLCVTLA

[5] = P. falciparum ATP4 D1247Y mutant growth inhibitors, dose response, NITD609-resistant line, SYBR Green, dry powder (AID 1159571); assay type: functional, cell-based;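 note: parasites synchronized at ring stage by sorbitol before testing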
[6] = HepG2 cell cytotoxicity, dose response, cytotoxicity control, cherry-picked samples (AID 1159577); assay type: functional, cell-based
[7] = P. falciparum Dd2 growth inhibitors, dose response, SYBR Green, cherry-picked samples (AID 1159567); assay type: functional, cell-based
[8] = HepG2 cell cytotoxicity, dose response, cytotoxicity control, plate reader, dry powder samples (AID 1159569); assay type: functional, cell-based;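 note: inhibitor potency with signal falling toward the positive control level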
[9] = P. falciparum Dd2 growth inhibitors, dose response, SYBR Green, dry powder samples (AID 1159566); assay type: functional, cell-based;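 note: potency for growth inhibition with lower SYBR green DNA signal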
[10] = P. falciparum 3D7-ScDHODH growth inhibitors, dose response, SYBR Green, dry powder samples (AID 1159570); assay type: functional, cell-based;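 note: parasite growth measured after 72 hours of compound exposure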
[11] = biological target: FAD-linked sulfhydryl oxidase ALR (Homo sapiens, UniProt P55789); test: inhibitors of human ALR sulfhydryl oxidase, dose response, biochemical, H2O2 detection, luminescence, cherry-pick (AID 493248)
Chain of FAD-linked sulfhydryl oxidase ALR (P55789 whole entry): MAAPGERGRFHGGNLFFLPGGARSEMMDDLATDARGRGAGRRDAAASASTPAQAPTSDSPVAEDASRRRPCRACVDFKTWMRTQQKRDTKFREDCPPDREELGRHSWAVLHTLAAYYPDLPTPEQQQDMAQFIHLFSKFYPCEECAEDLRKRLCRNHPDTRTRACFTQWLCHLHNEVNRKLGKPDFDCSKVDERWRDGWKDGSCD

[12] = biological target: T2, Rac GTPase-activating protein 1 (Homo sapiens, UniProt Q9H0H5); test: MgcRacGAP GTPase-activating activity inhibitors, confirmation, biochemical, ADP Hunter fluorescence, primary and confirmatory (AID 624330); assay type: functional
T2 sequence (Q9H0H5 whole entry): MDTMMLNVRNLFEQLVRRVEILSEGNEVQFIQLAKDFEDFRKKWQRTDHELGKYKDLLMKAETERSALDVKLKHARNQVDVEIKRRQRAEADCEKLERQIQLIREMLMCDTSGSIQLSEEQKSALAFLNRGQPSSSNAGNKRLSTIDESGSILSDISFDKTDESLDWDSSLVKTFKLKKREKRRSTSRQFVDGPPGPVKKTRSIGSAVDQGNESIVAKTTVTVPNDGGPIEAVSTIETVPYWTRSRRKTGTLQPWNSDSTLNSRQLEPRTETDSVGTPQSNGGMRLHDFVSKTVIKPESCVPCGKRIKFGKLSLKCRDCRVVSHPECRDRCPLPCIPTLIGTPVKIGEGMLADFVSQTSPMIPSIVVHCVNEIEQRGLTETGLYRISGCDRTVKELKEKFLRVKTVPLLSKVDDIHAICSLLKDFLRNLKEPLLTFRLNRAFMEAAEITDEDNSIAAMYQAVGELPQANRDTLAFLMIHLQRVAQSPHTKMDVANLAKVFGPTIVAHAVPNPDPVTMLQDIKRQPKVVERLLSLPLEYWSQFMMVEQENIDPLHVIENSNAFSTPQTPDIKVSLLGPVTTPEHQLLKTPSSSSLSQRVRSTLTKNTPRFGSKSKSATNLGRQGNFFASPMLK

[13] = HEp-2 cell cytotoxicity, dose response, cytotoxicity control for RSV inhibitor project, HTS (AID 2410); assay type: functional; details: human respiratory syncytial virus
[14] = HeLa cell cytotoxicity, dose response, cytotoxicity control for MgcRacGAP inhibitor project (AID 624300); assay type: functional
Estrogen receptor = biological target: T3, Estrogen receptor (Homo sapiens, UniProt P03372);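 note: potency for inhibiting coactivator peptide recruitment to the receptor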
T3 sequence (P03372 whole entry): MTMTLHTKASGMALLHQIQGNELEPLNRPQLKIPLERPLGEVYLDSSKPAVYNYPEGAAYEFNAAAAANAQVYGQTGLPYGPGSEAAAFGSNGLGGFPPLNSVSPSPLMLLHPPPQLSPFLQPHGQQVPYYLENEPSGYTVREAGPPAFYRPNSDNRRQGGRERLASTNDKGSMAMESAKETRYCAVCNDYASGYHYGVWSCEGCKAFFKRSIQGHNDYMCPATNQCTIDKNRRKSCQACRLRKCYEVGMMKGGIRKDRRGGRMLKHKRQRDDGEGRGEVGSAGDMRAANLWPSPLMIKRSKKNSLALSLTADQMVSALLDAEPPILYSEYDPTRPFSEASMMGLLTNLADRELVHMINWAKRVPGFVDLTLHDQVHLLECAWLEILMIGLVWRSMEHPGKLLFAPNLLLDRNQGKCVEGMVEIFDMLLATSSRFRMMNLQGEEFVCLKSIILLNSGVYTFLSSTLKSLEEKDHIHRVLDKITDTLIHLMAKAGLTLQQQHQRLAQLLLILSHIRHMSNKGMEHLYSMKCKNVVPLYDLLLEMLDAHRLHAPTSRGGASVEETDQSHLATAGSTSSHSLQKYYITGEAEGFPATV

[15] = THP-1 cell cytotoxicity, dose response, cytotoxicity control for Vif-APOBEC3G degradation inhibitor project, THP-1 cells (AID 1117359); assay type: functional; details: Human immunodeficiency virus 1, THP-1
[16] = biological target: G-protein coupled receptor 55 (Homo sapiens, UniProt Q9Y2T6); test: GPR55 agonists via beta-arrestin recruitment, primary screen, imaging, U2OS cells, beta-arrestin-GFP redistribution (AID 1961); assay type: functional
Chain of G-protein coupled receptor 55 (Q9Y2T6 whole entry): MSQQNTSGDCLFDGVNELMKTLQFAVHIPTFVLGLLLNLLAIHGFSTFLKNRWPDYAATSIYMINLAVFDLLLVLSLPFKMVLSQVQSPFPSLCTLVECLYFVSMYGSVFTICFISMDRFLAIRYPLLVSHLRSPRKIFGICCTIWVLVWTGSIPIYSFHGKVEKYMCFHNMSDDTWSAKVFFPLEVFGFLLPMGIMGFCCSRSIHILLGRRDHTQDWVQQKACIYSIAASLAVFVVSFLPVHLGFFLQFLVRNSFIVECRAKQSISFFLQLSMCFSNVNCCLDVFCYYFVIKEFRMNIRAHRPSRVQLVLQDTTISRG

NADPH oxidase 1 = biological target: T4, NADPH oxidase 1 (Homo sapiens, UniProt Q9Y5S8); assay type: functional, cell-based;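 note: Cell-based assay with luminescence read-out, IC50 derived from inhibitor dose-response curves; intracellular ROS from endogenous NOX1 in intact HT29 colon cancer cells; potency of inhibitors that lower the ROS luminescence signal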
T4 sequence (Q9Y5S8 whole entry): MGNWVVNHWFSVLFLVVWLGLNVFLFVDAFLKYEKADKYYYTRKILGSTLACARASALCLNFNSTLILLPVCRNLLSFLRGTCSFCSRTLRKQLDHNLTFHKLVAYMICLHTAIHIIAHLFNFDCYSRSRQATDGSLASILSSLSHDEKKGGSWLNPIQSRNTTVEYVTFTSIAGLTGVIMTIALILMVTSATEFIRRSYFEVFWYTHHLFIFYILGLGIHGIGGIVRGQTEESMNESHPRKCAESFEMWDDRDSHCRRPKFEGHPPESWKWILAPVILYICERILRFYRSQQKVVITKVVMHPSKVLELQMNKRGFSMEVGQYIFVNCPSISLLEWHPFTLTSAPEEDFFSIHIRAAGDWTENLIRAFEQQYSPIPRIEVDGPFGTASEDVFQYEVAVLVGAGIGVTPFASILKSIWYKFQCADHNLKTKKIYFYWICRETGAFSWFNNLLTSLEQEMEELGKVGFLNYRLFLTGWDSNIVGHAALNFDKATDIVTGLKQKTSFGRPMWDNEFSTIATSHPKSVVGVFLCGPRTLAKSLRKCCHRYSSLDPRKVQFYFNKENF

[17] = Luminescence Cell-Based Dose Response HTS to Identify Activators of Luciferase Translation or Activity in H4 […] Cells. [Related pubchem assays: 1829 (Project Summary), 1814 (Primary HTS)]; assay type: functional
[18] = Luminescence Cell-Based Dose Confirmation HTS to Identify Activators of 5'UTR Stem-Loop Driven Alpha-Synuclein mRNA Translation in H4 Neuroglioblastoma Cells. [Related pubchem assays: 1829 (Project Summary), 1814 (Primary HTS)]; assay type: functional
H4 = test: Luminescence Cell-Based Dose Response HTS to Identify Activators of 5'UTR Stem-Loop Driven Prion Protein mRNA Translation in H4 Neuroglioblastoma Cells. [Related pubchem assays: 1829 (Project Summary), 1814 (Primary HTS)]; assay type: functional; details: Homo sapiens
[19] = biological target: T5, Short transient receptor potential channel 4 (Mus musculus, UniProt Q9QUQ5); test: mouse TRPC4 channel activators, dose response, cell-based, HEK293 TRPC4/mu-opioid, Fluo-4 calcium (AID 434937); assay type: functional
T5 sequence (Q9QUQ5 whole entry): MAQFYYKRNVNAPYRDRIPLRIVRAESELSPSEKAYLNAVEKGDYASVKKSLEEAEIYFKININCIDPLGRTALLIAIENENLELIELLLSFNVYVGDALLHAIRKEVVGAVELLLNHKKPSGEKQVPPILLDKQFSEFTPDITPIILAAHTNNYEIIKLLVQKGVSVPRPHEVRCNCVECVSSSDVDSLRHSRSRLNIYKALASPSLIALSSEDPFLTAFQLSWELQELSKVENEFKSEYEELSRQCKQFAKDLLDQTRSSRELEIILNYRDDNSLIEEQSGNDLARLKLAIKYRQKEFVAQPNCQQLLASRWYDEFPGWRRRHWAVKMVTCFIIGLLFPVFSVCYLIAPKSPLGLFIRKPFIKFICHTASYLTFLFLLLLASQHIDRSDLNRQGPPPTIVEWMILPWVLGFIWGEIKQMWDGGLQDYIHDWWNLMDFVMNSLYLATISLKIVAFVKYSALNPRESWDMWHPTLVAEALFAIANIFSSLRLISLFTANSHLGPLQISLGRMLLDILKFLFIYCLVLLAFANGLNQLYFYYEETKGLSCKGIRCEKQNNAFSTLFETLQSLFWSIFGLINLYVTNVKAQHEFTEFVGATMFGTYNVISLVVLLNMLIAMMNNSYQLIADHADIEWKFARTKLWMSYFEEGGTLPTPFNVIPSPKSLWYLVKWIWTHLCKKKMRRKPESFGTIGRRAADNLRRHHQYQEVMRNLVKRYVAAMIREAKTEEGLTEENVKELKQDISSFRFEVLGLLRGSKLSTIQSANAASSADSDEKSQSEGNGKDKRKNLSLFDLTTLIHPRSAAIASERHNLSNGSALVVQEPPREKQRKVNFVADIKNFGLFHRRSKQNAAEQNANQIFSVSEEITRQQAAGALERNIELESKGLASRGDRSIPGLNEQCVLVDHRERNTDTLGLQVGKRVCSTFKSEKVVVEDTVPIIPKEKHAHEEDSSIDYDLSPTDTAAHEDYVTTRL

cells [20] = assay type: functional, cell-based
cells [21] = assay type: functional, cell-based; remark: listed apart in the source

Chain of DNA dC->dU-editing enzyme APOBEC-3G (Q9HC16 whole entry): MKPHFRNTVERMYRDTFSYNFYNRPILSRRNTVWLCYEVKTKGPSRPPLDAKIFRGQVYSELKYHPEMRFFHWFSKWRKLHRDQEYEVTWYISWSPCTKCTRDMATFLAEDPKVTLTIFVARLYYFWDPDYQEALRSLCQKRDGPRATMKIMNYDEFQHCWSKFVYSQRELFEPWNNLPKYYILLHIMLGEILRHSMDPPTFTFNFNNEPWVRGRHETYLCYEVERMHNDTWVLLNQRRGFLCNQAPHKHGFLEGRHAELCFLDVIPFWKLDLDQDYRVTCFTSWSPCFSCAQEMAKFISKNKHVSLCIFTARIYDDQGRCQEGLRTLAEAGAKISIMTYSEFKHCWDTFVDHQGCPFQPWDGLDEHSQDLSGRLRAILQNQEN

## C#CCn1cc(/C=N/NC(=O)COc2cccc3cccnc23)c2ccccc21
[1]
  IC50: > 100 µM (inactive)
[2]
  EC50: > 0.377 µM (active)
[3]
  IC50: > 100 µM (inactive)

## O=C(Nc1nc2ccccc2s1)c1ccc(N2CCCCC2)c([N+](=O)[O-])c1
[4]
  IC50: 1.12 µM (active)

## C[C@@H]1CN([C@H](C)CO)C(=O)c2cc(C#Cc3ccccc3)cnc2O[C@H]1CN(C)C(=O)CCN1CCCCC1
[5]
  AC50: 1.79 µM (active)
[6]
  AC50: 35.6 µM (active)
[7]
  AC50: 2.23 µM (active)
[8]
  AC50: 22.9 µM (active)
[9]
  AC50: 1.49 µM (active)
[10]
  AC50: 2.34 µM (active)

## COc1ccc(/C=N/Nc2nc3ccccc3[nH]2)cc1OC
[11]
  AC50: 0.285 µM (active)
[12]
  IC50: 74 µM (active)
[2]
  EC50: 3.46 µM (active)
[13]
  CC50: 20.8 µM (active)
[14]
  CC50: 100 µM (active)

## O=S(=O)(/N=C(\Sc1ccc(Cl)cc1)c1ccccc1)c1ccccc1
Estrogen receptor
  IC50: > 50 µM (not active)

## NC(=O)c1ccccc1NC(=O)/C=C/c1ccc(Cl)cc1
[15]
  CC50: > 40 µM (active)

## Cc1ccccc1OCCC(=O)Nc1cc(S(=O)(=O)N2CCOCC2)ccc1OC(C)C
[16]
  EC50: 4.27 µM (active)

## CN(C)CCCN1c2ccccc2Sc2ccccc21 [PROMAZINE HYDROCHLORIDE]
[11]
  AC50: 1.28 µM (active)
NADPH oxidase 1
  IC50: > 17 µM (not active)

## Fc1ccc2c(c1)Sc1ccccc1N2
NADPH oxidase 1
  IC50: 0.24 µM (active)

## CN(C)c1ccc(-c2sc(Nc3ccccc3)n[n+]2-c2ccc(F)cc2)cc1
[4]
  IC50: 1.33 µM (active)
[17]
  EC50: 17.8 µM (active)
[18]
  EC50: > 120 µM (not active)
H4
  EC50: > 120 µM (not active)
[19]
  EC50: 10.6 µM (active)

## COc1ccc(C2CC(c3c(O)nc4ccc(Cl)cc4c3-c3ccccc3)=NN2S(C)(=O)=O)cc1OC (stereo unspecified)
Estrogen receptor
  IC50: 12.4 µM (active)

## O=C(NCCC1CCCCN1S(=O)(=O)c1ccc(F)cc1)C(=O)NCc1ccccn1 (stereo unspecified)
[15]
  CC50: > 40 µM (active)

## COc1cc2ccccc2cc1C(=O)Nc1ccc(C)cc1
Cells [20]
  EC50: 29.2 µM (active)
[2]
  EC50: 0.394 µM (active)
Cells [21]
  EC50: > 350 µM (not active)
